In patent US20060058260A1, “Combination therapy with gemcitabine and zd6126” (priority 2002, published 2006):
“And” between values parts separate entries of the source, which are not always exact repeats. Equal values may be shown once. Where a name gives a salt, the structure may show the parent alone.

Legend:
L3.6pl cells = assay: Primary pancreatic tumour growth and metastases growing orthotopically in nude mice; type: in vivo; conditions: gemcitabine 100 mg/kg i.p. twice weekly, ZD6126 75 mg/kg i.p. daily 5 days per week; for Liver Met: animals with liver metastases / animals in group; for Liver Met / LN Met / Peritoneal Carcinosis / Tumour Weight Average ± std dev: 25 days after tumour cell injection; for LN Met: animals with lymph node metastases / animals in group; for Incidence Pancreas: animals with pancreatic tumours / animals in group, sacrificed 25 days after tumour cell injection; for Peritoneal Carcinosis: animals with peritoneal carcinosis / animals in group; for Tumour Weight Average ± std dev: primary pancreatic tumour weight
Protocol: (§1) Model to Investigate Effects of ZD6126 and Gemcitabine Therapy on Primary Pancreatic Tumour Growth and Metastases Growing Orthotopically in Nude Mice Nude mice (n=8 to 10 per group) were treated 9 days after injection of 1×10^6 L3.6pl cells into the pancreas, with gemcitabine alone (100 mg/kg by intraperitoneal injection (i.p.) twice weekly on treatment days 2, 5, 9, 12), ZD6126 alone (75 mg/kg i.p. daily for 5 days per week on treatment days 1-5 and 8-12), or a combination of both agents ie gemcitabine (100 mg/kg i.p. twice weekly) and ZD6126 (75 mg/kg i.p. daily for 5 days per week). Thus the combination group received ZD6126 on treatment days 1-5 and 8-12 and gemcitabine on treatment days 2 and 5 and 9 and 12. On the days where both agents were given, gemcitabine was dosed at least 1 hour before ZD6126. A control group of 10 mice received intraperitoneal injections of an equivalent volume of saline according to the same treatment schedule as the combination group. The animals were sacrificed 25 days after tumour cell injection. The incidence of pancreatic tumours, liver metastases, lymph node metastases and peritoneal carcinosis was evaluated. The primary pancreatic tumour weight was measured. All macroscopically enlarged lymph nodes and liver nodules were confirmed by histopathology (H&E staining).

[1] = Body weight in the orthotopic pancreatic tumour model in nude mice; type: in vivo; conditions: 25 days after tumour cell injection; gemcitabine 100 mg/kg i.p. twice weekly, ZD6126 75 mg/kg i.p. daily 5 days per week
Protocol: as §1, with “Nude” for “Model to Investigate Effects of ZD6126 and Gemcitabine Therapy on Primary Pancreatic Tumour Growth and Metastases Growing Orthotopically in Nude Mice Nude”, “injection.” for “injection. The incidence of pancreatic tumours, liver metastases, lymph node metastases and peritoneal carcinosis was evaluated. The primary pancreatic tumour weight was measured. All macroscopically enlarged lymph nodes and liver nodules were confirmed by histopathology (H&E staining).”

| SMILES | Liver Met (L3.6pl cells) | LN Met (L3.6pl cells) | Incidence Pancreas (L3.6pl cells) | Peritoneal Carcinosis (L3.6pl cells) | Tumour Weight Average ± std dev (L3.6pl cells) | Tumour Weight Average ± std dev (L3.6pl cells; listed as gemcitabine) [mg] | Body Weight Average ± std dev [1] [g] |
| --- | --- | --- | --- | --- | --- | --- | --- |
| Nc1ccn([C@@H]2O[C@H](CO)[C@@H](O)C2(F)F)c(=O)n1 [Gemcitabine, 2′-deoxy-2′,2′-difluorocytidine monohydrochloride (β-isomer)] | 2/10 | 10/10 | 10/10 | 1/10 | 687 ± 157 mg | 687 | 19.1 ± 2.2 |
| COc1cc2c(c(OC)c1OC)-c1ccc(OP(=O)(O)O)cc1[C@@H](NC(C)=O)CC2 [ZD6126, N-acetylcolchinol-O-phosphate] | 1/8 | 2/8 | 8/8 | 0/8 | 541 mg and 541 ± 201 mg | – | 18.5 ± 1.9 |
